Tests used:
GLXMA [1] = assay: Post-emergence herbicidal effect and crop plant compatibility, greenhouse pot test; format: in vivo, Glycine max; details: visual rating about 3 weeks after treatment, crop plant
From the text: (§1) • ALOMY: Alopecurus myosuroides SETVI: Setaria viridis • AVEFA: Avena fatua POLCO: Fallopia convolvulus • AMARE: Amaranthus retroflexus ECHCG: Echinochloa crus-galli • LOLRJ: Lolium rigidum STEME: Stellaria media • VERPE: Veronica persica MATIN: Tripleurospermum inodorum • DIGSA: Digitaria sanguinalis ABUTH: Abutylon threophrasti • TRZAS: Triticum aestivum VIOTR: Viola tricolor • BRSNW: Brassica napus ZEAMX: Zea mays • PHBPU: Ipomoea purpurea GLXMA: Glycine max • ORYSA: Oryza sativa HORMU: Hordeum murinum
Seeds of monocotyledonous and dicotyledonous weeds and crop plants are placed in sandy loam in plastic or organic planting pots, covered with soil and cultivated in a greenhouse under controlled growth conditions. 2 to 3 weeks after sowing, the trial plants are treated at the one-leaf stage. The compounds of the invention, formulated in the form of wettable powders (WP) or as emulsion concentrates (EC), are then sprayed onto the green parts of the plants as aqueous suspension or emulsion with addition of 0.5% additive at a water application rate of 600 l/ha (converted). After the test plants have been kept in the greenhouse under optimum growth conditions for about 3 weeks, the activity of the preparations is rated visually in comparison to untreated controls. For example, 100% activity=the plants have died, 0% activity=like control plants.
Tables 20a to 38c below show the effects/crop compatibilities of selected compounds of the general formula (I) on various harmful plants at an application rate corresponding to 20 to 320 g/ha, which were obtained by the trial procedure specified above.

ZEAMX [2] = assay: Pre-emergence herbicidal effect and crop plant compatibility, greenhouse pot test; format: in vivo, Zea mays; details: scored visually after about 3 weeks vs untreated controls
From the text: (§2) Seeds of monocotyledonous and dicotyledonous weed plants and crop plants are placed in plastic or organic planting pots and covered with soil. The compounds of the invention, formulated in the form of wettable powders (WP) or as emulsion concentrates (EC), are then applied to the surface of the covering soil as aqueous suspension or emulsion with addition of 0.5% additive at a water application rate equivalent to 600 l/ha. After the treatment, the pots are placed in a greenhouse and kept under good growth conditions for the trial plants. After about 3 weeks, the effect of the preparations is scored visually in comparison with untreated controls as percentages. For example, 100% activity=the plants have died, 0% activity=like control plants.
(§3) Tables 1a to 19c below show the effects/crop compatibilities of selected compounds of the general formula (I) on various harmful plants at an application rate corresponding to 20 to 320 g/ha, which were obtained by the trial procedure specified above.
as §1

TRZAS [3] = assay: as above; format: in vivo, Triticum aestivum; details: scored visually after about 3 weeks vs untreated controls
From the text: as §2, §3, §1

ZEAMX [4] = assay: Post-emergence herbicidal effect and crop plant compatibility, greenhouse pot test; format: in vivo, Zea mays; details: one-leaf stage, rated visually after about 3 weeks vs untreated controls
Procedure, shortened: (§4)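 Visual % activity scored roughly 3 weeks post-spray against untreated plants, where 100% means death and 0% equals control. Plants were treated at the one-leaf stage, 2 to 3 weeks after sowing in sandy loam, at 20 to 320 g/ha.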

TRZAS [5] = assay: as above; format: in vivo, Triticum aestivum; details: for Post-emergence effect against TRZAS: visual rating about 3 weeks after treatment, crop plant; for Post-emergence effect at 20 g/ha against TRZAS in %: one-leaf stage, rated visually after about 3 weeks vs untreated controls
Procedure, shortened: as §4

ORYSA = assay: as above; format: in vivo, Oryza sativa; details: 80 g/ha, visual rating about 3 weeks after treatment, crop plant
Procedure, shortened: as §4

GLXMA [6] = assay: Pre-emergence herbicidal effect and crop plant compatibility, greenhouse pot test; format: in vivo, Glycine max; details: scored visually after about 3 weeks vs untreated controls
From the text: as §2, §3, §1

BRSNW = assay: as above; format: in vivo, Brassica napus; details: scored visually after about 3 weeks vs untreated controls
From the text: as §2, §3, §1

POLCO = assay: Post-emergence herbicidal effect, greenhouse pot test; format: in vivo, Fallopia convolvulus; details: 320 g/ha
Procedure, shortened: (§5)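 Greenhouse pot test: weeds and crops sown in sandy loam, sprayed post-emergence at one-leaf stage (2–3 weeks after sowing) with WP or EC formulations plus 0.5% additive at 600 l/ha water, rates 20–320 g/ha. Visual rating about 3 weeks later versus untreated controls (100% = dead, 0% = as control).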

VERPE = assay: as above; format: in vivo, Veronica persica; details: 320 g/ha
Procedure, shortened: as §5

PHBPU = assay: as above; format: in vivo, Ipomoea purpurea; details: 320 g/ha
Procedure, shortened: as §5

AVEFA = assay: as above; format: in vivo, Avena fatua; details: 320 g/ha, visual rating about 3 weeks after treatment
Procedure, shortened: as §5

AMARE = assay: as above; format: in vivo, Amaranthus retroflexus; details: 320 g/ha, visual rating about 3 weeks after treatment
Procedure, shortened: as §5

ABUTH = assay: as above; format: in vivo, Abutilon theophrasti; details: visual rating about 3 weeks after treatment
Procedure, shortened: as §5

With `CCOC(=O)C(OCC)Oc1nn(-c2ccc(Cl)cc2F)c(-c2ccc(F)cc2F)c1Br` (stereo not shown) [Example I-09] the “Post-emergence effect against GLXMA” value (GLXMA [1]; 80 g/ha) was 10%, the “Post-emergence effect against GLXMA” value (GLXMA [1]; 320 g/ha) was 20% and the “Pre-emergence effect at 320 g/ha against ZEAMX in %” value (ZEAMX [2]; 320 g/ha) was 10%. The “Pre-emergence effect at 80 g/ha against TRZAS in %” value (TRZAS [3]) was 0%, the “Pre-emergence effect at 320 g/ha against TRZAS in %” value (TRZAS [3]) was 20% and the “Post-emergence effect at 80 g/ha against ZEAMX in %” value (ZEAMX [4]) was 0%. The “Post-emergence effect at 320 g/ha against ZEAMX in %” value (ZEAMX [4]) was 0%, the “Post-emergence effect against TRZAS” value (TRZAS [5]; 80 g/ha) was 0% and the “Post-emergence effect against TRZAS” value (TRZAS [5]; 320 g/ha) was 0%. The “Post-emergence effect against ORYSA” value (ORYSA) was 10%, the “Pre-emergence effect at 80 g/ha against GLXMA in %” value (GLXMA [6]) was 10% and the “Pre-emergence effect at 320 g/ha against GLXMA in %” value (GLXMA [6]) was 10%. The “Pre-emergence effect at 80 g/ha against BRSNW in %” value (BRSNW; 80 g/ha) was 0% and the “Pre-emergence effect at 320 g/ha against BRSNW in %” value (BRSNW; 320 g/ha) was 0%.

In the case of `COC(=O)C(OC)Oc1nn(-c2ccc(Cl)cc2F)c(-c2ccc(F)cc2F)c1Br` (stereo not shown) [Example I-11], the “Post-emergence effect against GLXMA” value (GLXMA [1]; 80 g/ha) is reported as 20%, the “Pre-emergence effect at 80 g/ha against ZEAMX in %” value (ZEAMX [2]; 80 g/ha) is reported as 0% and the “Pre-emergence effect at 80 g/ha against TRZAS in %” value (TRZAS [3]) is reported as 0%. The “Pre-emergence effect at 320 g/ha against TRZAS in %” value (TRZAS [3]) was 0%, the “Post-emergence effect at 80 g/ha against ZEAMX in %” value (ZEAMX [4]) was 0% and the “Post-emergence effect at 320 g/ha against ZEAMX in %” value (ZEAMX [4]) was 0%. The “Post-emergence effect against TRZAS” value (TRZAS [5]; 80 g/ha) was 0%, the “Post-emergence effect against TRZAS” value (TRZAS [5]; 320 g/ha) was 0% and the “Post-emergence effect against ORYSA” value (ORYSA) was 0%. The “Pre-emergence effect at 80 g/ha against GLXMA in %” value (GLXMA [6]) was 0% and the “Pre-emergence effect at 320 g/ha against GLXMA in %” value (GLXMA [6]) was 0%.

In the case of `COC(=O)C(OC)Oc1nn(-c2ccccc2F)c(-c2ccc(F)nc2)c1C(F)(F)C(F)(F)F` (stereo not shown) [Example I-60], the “Post-emergence effect against POLCO in %” value (POLCO) is reported as 90%, the “Post-emergence effect against GLXMA” value (GLXMA [1]; 20 g/ha) is reported as 10% and the “Post-emergence effect against VERPE in %” value (VERPE) is reported as 80%. For the same compound, the “Post-emergence effect against PHBPU in %” value (PHBPU) was 90%, the “Post-emergence effect at 20 g/ha against ZEAMX in %” value (ZEAMX [4]) was 0% and the “Post-emergence effect at 80 g/ha against ZEAMX in %” value (ZEAMX [4]) was 0%. The “Post-emergence effect at 20 g/ha against TRZAS in %” value (TRZAS [5]) was 0%, the “Post-emergence effect against TRZAS” value (TRZAS [5]; 80 g/ha) was 0% and the “Post-emergence effect against AVEFA” value (AVEFA) was 80%.

`COC(=O)C(OC)Oc1nn(-c2cccc(C)c2F)c(-c2ccc(F)nc2)c1C1CC1` (stereo not shown) [Example I-93] was tested, and the “Post-emergence effect against AMARE” value (AMARE) was 90%, the “Post-emergence effect against GLXMA” value (GLXMA [1]; 20 g/ha) was 20% and the “Post-emergence effect against PHBPU in %” value (PHBPU) was 80%. For the same compound, the “Post-emergence effect at 20 g/ha against ZEAMX in %” value (ZEAMX [4]) was 10%, the “Post-emergence effect at 20 g/ha against TRZAS in %” value (TRZAS [5]) was 0% and the “Post-emergence effect against TRZAS” value (TRZAS [5]; 80 g/ha) was 10%. The “Post-emergence effect against TRZAS” value (TRZAS [5]; 320 g/ha) was 20%, the “Post-emergence effect against ABUTH” value (ABUTH; 80 g/ha) was 80% and the “Post-emergence effect against ABUTH” value (ABUTH; 320 g/ha) was 90%.

Source: patent US20240391862A1, “(1,4,5-TRISUBSTITUTED-1H-PYRAZOL-3-YL)OXY-2-ALKOXY ALKYL ACIDS AND THEIR DERIVATIVES, THEIR SALTS AND THEIR USE AS HERBICIDAL AGENTS” (Bayer AKtiengesellschaft, priority 2021, published 2024)
